PubChem BioAssay AID280 (DTP/NCI, 2004)
Inconclusive results and toxic doses are left out.

Tested on: nude mice, LOX melanoma ip, survival T/C
Test: NCI In Vivo Anticancer Drug Screen. Data for tumor model Human Amelanotic Melanoma (LOX) (intraperitoneal) in NU/NU BALB/C (nude) mice
Settings: endpoint: median survival time, schedule: Q04DX003 (ip), higher = longer survival
Procedure: The antitumor activity of compounds was measured in mice bearing transplantable tumors. Survival or tumor size were measured and the results are expressed as the measurement made in the treated group (T) divided by the measurement made in the vehicle treated control group (C). The tumor model used in this assay is Human Amelanotic Melanoma (LOX) (intraperitoneal) in NU/NU BALB/C (nude) mice

[1] = dose: 100.0 mg/kg/injection, vehicle: Klucel (hydroxypropylcellulose) (HPC)
[2] = dose: 75.0 mg/kg/injection, vehicle: suspension in saline
[3] = dose: 150.0 mg/kg/injection, vehicle: suspension in saline
[4] = dose: 300.0 mg/kg/injection, vehicle: suspension in saline
[5] = dose: 600.0 mg/kg/injection, vehicle: suspension in saline

NCc1cc(O)c(O)c(O)c1
T/C (dose: 75.0 mg/kg/injection, vehicle: saline): 107 % of control | T/C (dose: 150.0 mg/kg/injection, vehicle: saline): 101 % of control | T/C (dose: 600.0 mg/kg/injection, vehicle: saline): 102 % of control

CC1=C(C(N)=O)C(c2ccccc2)NC(=S)N1 (centres undefined)
T/C (dose: 25.0 mg/kg/injection, vehicle: Klucel (hydroxypropylcellulose) (HPC)): 96 % of control | T/C (dose: 50.0 mg/kg/injection, vehicle: Klucel (hydroxypropylcellulose) (HPC)): 98 % of control | T/C [1]: 97 % of control | T/C (dose: 200.0 mg/kg/injection, vehicle: Klucel (hydroxypropylcellulose) (HPC)): 95 % of control | T/C (dose: 400.0 mg/kg/injection, vehicle: Klucel (hydroxypropylcellulose) (HPC)): 86 % of control

CCCCCNc1ncnc2c(C)[nH]nc12
T/C (dose: 18.75 mg/kg/injection, vehicle: Klucel (hydroxypropylcellulose) (HPC)): 103 % of control | T/C (dose: 37.5 mg/kg/injection, vehicle: Klucel (hydroxypropylcellulose) (HPC)): 94 % of control | T/C (dose: 75.0 mg/kg/injection, vehicle: Klucel (hydroxypropylcellulose) (HPC)): 98 % of control | T/C (dose: 150.0 mg/kg/injection, vehicle: Klucel (hydroxypropylcellulose) (HPC)): 94 % of control

CCC1(O)C(=O)OCc2c1cc1n(c2=O)Cc2cc3cc(N)ccc3nc2-1 (centres undefined)
T/C (dose: 3.75 mg/kg/injection, vehicle: suspension in saline): 324 % of control | T/C (dose: 4.0 mg/kg/injection, vehicle: saline): 189 % of control | T/C (dose: 7.0 mg/kg/injection, vehicle: saline): 355 % of control | T/C (dose: 7.5 mg/kg/injection, vehicle: suspension in saline): 324 % of control | T/C (dose: 12.0 mg/kg/injection, vehicle: saline): 355 % of control | T/C (dose: 15.0 mg/kg/injection, vehicle: suspension in saline): 324 % of control | T/C (dose: 20.0 mg/kg/injection, vehicle: saline): 355 % of control | T/C (dose: 33.0 mg/kg/injection, vehicle: saline): 355 % of control

CC/C(=C(\c1ccccc1)c1ccc(OCCN(C)C)cc1)c1ccccc1
T/C [2]: 109 % of control | T/C [3]: 101 % of control | T/C [4]: 96 % of control | T/C [5]: 95 % of control

O=S(=O)(c1cccc(N=C=S)c1)c1cccc(N=C=S)c1
T/C (dose: 15.0 mg/kg/injection, vehicle: Klucel (hydroxypropylcellulose) (HPC)): 91 % of control | T/C (dose: 30.0 mg/kg/injection, vehicle: Klucel (hydroxypropylcellulose) (HPC)): 95 % of control | T/C (dose: 60.0 mg/kg/injection, vehicle: Klucel (hydroxypropylcellulose) (HPC)): 107 % of control | T/C (dose: 120.0 mg/kg/injection, vehicle: Klucel (hydroxypropylcellulose) (HPC)): 109 % of control

C/C(=N\NC(=S)N1CCC1)c1ccccn1
T/C (dose: 3.13 mg/kg/injection, vehicle: other): 99 % of control | T/C (dose: 6.25 mg/kg/injection, vehicle: other): 96 % of control | T/C (dose: 12.5 mg/kg/injection, vehicle: other): 95 % of control | T/C (dose: 25.0 mg/kg/injection, vehicle: other): 100 % of control

O=C1C2=C(C(=O)c3cnccc31)C1C=CC2CC1 (centres undefined)
T/C (dose: 25.0 mg/kg/injection, vehicle: DMSO): 93 % of control

NC(=O)CCC(N)C(=O)O (centres undefined)
T/C [2]: 101 % of control | T/C [3]: 90 % of control | T/C [4]: 95 % of control | T/C [5]: 102 % of control | T/C (dose: 1200.0 mg/kg/injection, vehicle: suspension in saline): 101 % of control

CN(C)/N=N/c1nc[nH]c1C(N)=O
T/C [1]: 107 % of control
